Series [1] is described as follows: Hepatobiliary toxicity in Cynomolgus monkey assessed as cholestasis measured up to 1 month. Details: species or system Macaca fascicularis. The settings on record: time <=1 months.
The target in series [2] is T1, hERG (Homo sapiens, UniProt Q12809). Kind of series: Inhibition of hERG at 10 uM by electrophysiological assay relative to control. (In general: The hERG channel carries a current that helps repolarise heart muscle cells.)
The nature of series [3]: Volume of distribution at steady state in cynomolgus monkey at 3 mg/kg, po or 1 mg/kg, iv measured up to 24 hrs by LC-MS/MS analysis. As to conditions: in vivo, read-out: Vdss. Type of series: ADME, organism-based, Macaca fascicularis.
The target in another series is CYP2B6 (Homo sapiens, UniProt P20813). Put plainly: Induction of CYP2B6 in human hepatocytes. In kind it is ADME, cell-based, Hepatocyte.
Series [4] is described as follows: Drug metabolism in human hepatocytes assessed as carbamate hydrolytic product formation at 10 uM measured after 2 hrs by LC/UV/MS analysis. In kind it is ADME, cell-based, Hepatocyte.
Series [5] in a line: Oral bioavailability in CD-1 mouse at 3 mg/kg measured up to 24 hrs by LC-MS/MS analysis. Type of series: ADME, organism-based. The settings on record: in vivo.
Series [6] in a line: Plasma clearance in CD-1 mouse at 3 mg/kg, po or 1 mg/kg, iv measured up to 24 hrs by LC-MS/MS analysis. In kind it is ADME, organism-based.
Series [7] in a line: Volume of distribution at steady state in Sprague-Dawley rat at 3 mg/kg, po or 1 mg/kg, iv measured up to 24 hrs by LC-MS/MS analysis. In kind it is ADME, organism-based. As to conditions: in vivo, read-out: Vdss.
Series [8] can be described thus: Elimination half life in Sprague-Dawley rat at 3 mg/kg, po or 1 mg/kg, iv measured up to 24 hrs by LC-MS/MS analysis. In kind it is ADME, organism-based. The settings on record: in vivo, read-out: beta t1/2 (converted).
The nature of series [9]: Protein binding in Cynomolgus monkey plasma assessed as free fraction at 3 mg/kg, po or 1 mg/kg, iv measured up to 24 hrs by LC-MS/MS analysis. Type of series: ADME, organism-based, Macaca fascicularis.
The nature of series [10]: Drug metabolism in human hepatocytes assessed as formation of acyl glucuronide metabolites at 10 uM measured after 2 hrs by LC/UV/MS analysis. In kind it is ADME, cell-based, Hepatocyte.
Series [11] can be described thus: Elimination half life in CD-1 mouse at 3 mg/kg, po or 1 mg/kg, iv measured up to 24 hrs by LC-MS/MS analysis. In kind it is ADME, organism-based. The settings on record: in vivo, read-out: beta t1/2 (converted).
Series [12] in a line: Plasma clearance in Sprague-Dawley rat at 3 mg/kg, po or 1 mg/kg, iv measured up to 24 hrs by LC-MS/MS analysis. Type of series: ADME, organism-based.
The nature of series [13]: Metabolic stability in liver microsomes (unknown origin) assessed as half life. Type of series: ADME, Microsome. (In general: Liver microsomes are a subcellular fraction often used to study metabolism.)
A short description of series [14]: Oral bioavailability in Sprague-Dawley rat at 3 mg/kg measured up to 24 hrs by LC-MS/MS analysis. As to conditions: in vivo. In kind it is ADME, organism-based.
The nature of series [15]: Hepatobiliary toxicity in Cynomolgus monkey assessed as cholangitis measured up to 1 month. Details: species or system Macaca fascicularis. As to conditions: in vivo, time <=1 months.
A short description of series [16]: Hepatobiliary toxicity in Cynomolgus monkey assessed as bile duct hyperplasia measured up to 1 month. As to conditions: in vivo, time <=1 months. Details: species or system Macaca fascicularis.
Series [17] in a line: Hepatobiliary toxicity in Sprague-Dawley rat assessed as bile duct hyperplasia at up to 100 mg/kg/day measured up to 6 months. In kind it is organism-based. As to conditions: in vivo.
The nature of series [18]: animal or person. The settings on record: Mus musculus, CD-1.
The nature of series [19]: Aqueous solubility of compound at pH 7.5. Type of series: physicochemical.
Series [20] can be described thus: Drug metabolism in rat hepatocytes assessed as N-demethylation metabolite formation at 10 uM measured after 2 hrs by LC/UV/MS analysis. Type of series: ADME, cell-based, Hepatocyte.
The target of series [21] is Lysophosphatidic acid receptor 1 (Mus musculus) (UniProt P61793). Kind of series: Antagonist activity at mouse LPA1 receptor expressed in CHO cells assessed as inhibition of LPA stimulated calcium flux incubated for 20 mins followed by LPA stimulation and measured for 90 seconds. Type of series: functional, cell-based. As to conditions: filed as antagonist.
The nature of series [22]: Drug metabolism in monkey hepatocytes assessed as N-demethylation metabolite formation at 10 uM measured after 2 hrs by LC/UV/MS analysis. Type of series: ADME, cell-based, Macaca mulatta, Hepatocyte. The settings on record: rhesus monkey.
A short description of series [23]: Drug metabolism in dog hepatocytes assessed as carbamate hydrolytic product formation at 10 uM measured after 2 hrs by LC/UV/MS analysis. In kind it is ADME, cell-based, Canis lupus familiaris, Hepatocyte.
A short description of series [24]: AUC (0 to 24 hrs) in Sprague-Dawley rat plasma at 300 mg/kg/day. Type of series: ADME, organism-based. On the set-up: time < 24 hr, dose 300 mg/kg/day.
The target of series [25] is Phosphatidylcholine translocator ABCB4 (Homo sapiens, UniProt P21439). Put plainly: Inhibition of MDR3 (unknown origin). In kind it is ADME.
Series [26] is described as follows: Hepatobiliary toxicity in Sprague-Dawley rat assessed as cholestasis at up to 100 mg/kg/day measured up to 6 month. Type of series: organism-based. As to conditions: in vivo, time <=6 months.
Series [27] in a line: Hepatobiliary toxicity in Cynomolgus monkey assessed as cholestasis at up to 150 mg/kg/day measured up to 9 month. Type of series: organism-based, Macaca fascicularis. As to conditions: in vivo, time <=9 months.
Series [28] in a line: animal or person. The settings on record: Mus musculus, CD-1. This is another data set of the same source.
The test system of series [29] is Rattus norvegicus. Put plainly: Anti-fibrotic activity in Sprague-Dawley rat model of bleomycin-induced lung fibrosis assessed as decrease in bleomycin-induced collagen deposition at 10 mg/kg, po BID followed by tracheal administration of bleomycin on day 8 and measured on day 21 by Masson's trichrome staining based HALO densitometric analysis relative to control. In kind it is functional. On the set-up: scale not given: the % may be the effect or the level left. The settings on record: time 21 day.

Series [30] has as its target T1, hERG. Kind of series: Inhibition of hERG at 30 uM by electrophysiological assay relative to control.
Series [31] is described as follows: Drug metabolism in mouse hepatocytes assessed as carbamate hydrolytic product formation at 10 uM measured after 2 hrs by LC/UV/MS analysis. In kind it is ADME, cell-based, Hepatocyte.
A short description of series [32]: Hepatobiliary toxicity in Sprague-Dawley rat assessed as cholangitis at up to 100 mg/kg/day measured up to 6 months. Type of series: organism-based. As to conditions: in vivo.
Series [33] relates to Rattus norvegicus. Kind of series: Anti-fibrotic activity in Sprague-Dawley rat model of bleomycin-induced lung fibrosis assessed as decrease in bleomycin-induced collagen deposition at 30 mg/kg, po BID followed by tracheal administration of bleomycin on day 8 and measured on day 21 by Masson's trichrome staining based HALO densitometric analysis relative to control. On the set-up: scale not given: the % may be the effect or the level left. In kind it is functional.

Series [34] can be described thus: Drug metabolism in monkey hepatocytes assessed as carbamate hydrolytic product formation at 10 uM measured after 2 hrs by LC/UV/MS analysis. In kind it is ADME, cell-based, Macaca mulatta, Hepatocyte. The settings on record: rhesus monkey.
Series [35] in a line: AUC (0 to 24 hrs) in Cynomolgus monkey plasma at 150 mg/kg/day. In kind it is ADME, organism-based, Macaca fascicularis. Details: time < 24 hr, dose 150 mg/kg/day.
For series [36], the system named is Rattus norvegicus. Kind of series: Anti-fibrotic activity in Sprague-Dawley rat model of bleomycin-induced lung fibrosis assessed as decrease in bleomycin-induced collagen deposition at 3 mg/kg, po BID followed by tracheal administration of bleomycin on day 8 and measured on day 21 by Masson's trichrome staining based HALO densitometric analysis relative to control. In kind it is functional. Details: scale not given: the % may be the effect or the level left. The settings on record: time 21 day.

Series [37] in a line: Hepatobiliary toxicity in Cynomolgus monkey assessed as bile duct hyperplasia at up to 150 mg/kg/day measured up to 9 months. The settings on record: in vivo. Type of series: organism-based, Macaca fascicularis.
The target in the next series is hERG (KCNH2) (Homo sapiens, UniProt Q12809). Kind of series: Inhibition of hERG at 15 uM by electrophysiological assay relative to control.
Series [38] is described as follows: AUC (0 to 24 hrs) in Cynomolgus monkey plasma at 50 mg/kg, po administered for 7 days. Details: route oral, time 7 day, dose 50 mg/kg. Type of series: ADME, organism-based, Macaca fascicularis.
In series [39] the test system is Rattus norvegicus. Kind of series: Anti-fibrotic activity in Sprague-Dawley rat model of bleomycin-induced lung fibrosis assessed as decrease in bleomycin-induced collagen deposition by measuring decrease in PSR-stained lung sections at 30 mg/kg, po BID for 21 days followed by tracheal administration of bleomycin by PSR staining based HALO densitometric analysis relative to control. Type of series: functional. Details: scale not given: the % may be the effect or the level left. As to conditions: time 21 day.

SMILES strings stand for the structures. Converted amounts (≈) assume the structure as drawn. Where only a bound is given, the exact number is not on record here.

Phosphatidylcholine translocator ABCB4, sequence (P21439 whole entry): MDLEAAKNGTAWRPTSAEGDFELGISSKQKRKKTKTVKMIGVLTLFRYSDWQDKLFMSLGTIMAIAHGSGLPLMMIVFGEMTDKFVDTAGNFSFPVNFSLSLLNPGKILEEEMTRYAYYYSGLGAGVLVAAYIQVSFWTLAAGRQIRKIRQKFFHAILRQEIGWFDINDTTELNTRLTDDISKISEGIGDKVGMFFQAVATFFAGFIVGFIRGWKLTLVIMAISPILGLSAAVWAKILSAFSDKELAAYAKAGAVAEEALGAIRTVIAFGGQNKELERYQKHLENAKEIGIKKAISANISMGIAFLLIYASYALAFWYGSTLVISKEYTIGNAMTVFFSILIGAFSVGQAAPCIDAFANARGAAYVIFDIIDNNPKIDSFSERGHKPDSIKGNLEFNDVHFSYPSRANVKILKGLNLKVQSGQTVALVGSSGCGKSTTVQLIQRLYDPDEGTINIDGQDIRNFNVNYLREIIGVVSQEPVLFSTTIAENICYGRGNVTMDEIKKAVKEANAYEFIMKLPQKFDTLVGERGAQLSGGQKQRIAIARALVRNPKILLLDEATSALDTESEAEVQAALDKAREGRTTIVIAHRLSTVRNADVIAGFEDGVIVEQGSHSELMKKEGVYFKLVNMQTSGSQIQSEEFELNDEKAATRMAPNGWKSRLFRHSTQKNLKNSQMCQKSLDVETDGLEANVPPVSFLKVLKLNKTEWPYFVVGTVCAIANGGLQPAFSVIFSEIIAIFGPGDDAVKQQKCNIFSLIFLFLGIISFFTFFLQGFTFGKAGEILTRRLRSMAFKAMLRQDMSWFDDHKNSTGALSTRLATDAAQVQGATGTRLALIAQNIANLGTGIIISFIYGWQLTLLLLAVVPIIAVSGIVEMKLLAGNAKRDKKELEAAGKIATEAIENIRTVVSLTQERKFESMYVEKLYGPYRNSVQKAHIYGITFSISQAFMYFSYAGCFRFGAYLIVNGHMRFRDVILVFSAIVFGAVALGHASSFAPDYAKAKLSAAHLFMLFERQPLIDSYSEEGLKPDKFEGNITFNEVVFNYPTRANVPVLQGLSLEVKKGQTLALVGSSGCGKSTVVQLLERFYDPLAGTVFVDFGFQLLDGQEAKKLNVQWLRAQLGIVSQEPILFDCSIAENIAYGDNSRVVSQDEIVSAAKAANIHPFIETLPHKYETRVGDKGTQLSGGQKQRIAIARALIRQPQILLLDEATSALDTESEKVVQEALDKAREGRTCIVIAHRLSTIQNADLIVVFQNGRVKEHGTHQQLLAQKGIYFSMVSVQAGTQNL
T1 sequence (Q12809 whole entry): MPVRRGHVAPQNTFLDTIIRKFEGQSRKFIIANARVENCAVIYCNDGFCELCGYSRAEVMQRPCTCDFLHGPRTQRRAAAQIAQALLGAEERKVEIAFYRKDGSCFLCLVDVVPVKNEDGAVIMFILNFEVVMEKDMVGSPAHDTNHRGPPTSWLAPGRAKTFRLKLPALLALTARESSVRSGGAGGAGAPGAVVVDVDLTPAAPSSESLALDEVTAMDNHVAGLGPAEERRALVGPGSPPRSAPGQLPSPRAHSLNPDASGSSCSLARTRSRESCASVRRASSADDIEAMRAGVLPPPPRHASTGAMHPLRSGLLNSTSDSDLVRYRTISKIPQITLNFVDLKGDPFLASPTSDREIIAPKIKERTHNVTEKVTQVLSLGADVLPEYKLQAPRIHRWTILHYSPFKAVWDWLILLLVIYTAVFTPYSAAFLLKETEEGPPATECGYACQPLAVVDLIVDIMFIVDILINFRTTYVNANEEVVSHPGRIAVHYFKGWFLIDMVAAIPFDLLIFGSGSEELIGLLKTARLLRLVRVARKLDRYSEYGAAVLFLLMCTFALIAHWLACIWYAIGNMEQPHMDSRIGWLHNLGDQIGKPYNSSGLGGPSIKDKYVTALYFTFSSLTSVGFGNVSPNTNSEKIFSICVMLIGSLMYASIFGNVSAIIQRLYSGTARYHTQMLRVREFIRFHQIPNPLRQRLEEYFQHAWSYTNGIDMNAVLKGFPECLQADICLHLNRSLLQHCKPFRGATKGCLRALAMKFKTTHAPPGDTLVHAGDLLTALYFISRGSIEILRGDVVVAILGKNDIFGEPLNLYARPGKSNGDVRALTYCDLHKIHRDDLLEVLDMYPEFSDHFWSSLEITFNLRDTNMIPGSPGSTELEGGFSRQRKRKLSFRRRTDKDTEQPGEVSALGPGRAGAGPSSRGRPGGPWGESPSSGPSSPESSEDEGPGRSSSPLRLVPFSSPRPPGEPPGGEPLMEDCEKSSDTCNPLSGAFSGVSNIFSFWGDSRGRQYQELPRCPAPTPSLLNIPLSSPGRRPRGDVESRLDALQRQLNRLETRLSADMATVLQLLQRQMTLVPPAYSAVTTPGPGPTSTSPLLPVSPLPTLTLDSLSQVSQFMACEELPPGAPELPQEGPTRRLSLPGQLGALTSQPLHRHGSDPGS
Lysophosphatidic acid receptor 1 (Mus musculus), sequence (P61793 whole entry): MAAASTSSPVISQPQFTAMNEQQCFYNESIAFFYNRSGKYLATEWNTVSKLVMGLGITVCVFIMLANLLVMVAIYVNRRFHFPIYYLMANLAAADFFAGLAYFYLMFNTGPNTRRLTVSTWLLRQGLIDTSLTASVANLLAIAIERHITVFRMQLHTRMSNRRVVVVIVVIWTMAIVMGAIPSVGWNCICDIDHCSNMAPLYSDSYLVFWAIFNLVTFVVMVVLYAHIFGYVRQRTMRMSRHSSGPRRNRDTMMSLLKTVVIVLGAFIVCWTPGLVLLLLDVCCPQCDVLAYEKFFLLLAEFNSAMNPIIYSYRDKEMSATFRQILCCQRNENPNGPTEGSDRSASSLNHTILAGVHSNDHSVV
CYP2B6, sequence (P20813 whole entry): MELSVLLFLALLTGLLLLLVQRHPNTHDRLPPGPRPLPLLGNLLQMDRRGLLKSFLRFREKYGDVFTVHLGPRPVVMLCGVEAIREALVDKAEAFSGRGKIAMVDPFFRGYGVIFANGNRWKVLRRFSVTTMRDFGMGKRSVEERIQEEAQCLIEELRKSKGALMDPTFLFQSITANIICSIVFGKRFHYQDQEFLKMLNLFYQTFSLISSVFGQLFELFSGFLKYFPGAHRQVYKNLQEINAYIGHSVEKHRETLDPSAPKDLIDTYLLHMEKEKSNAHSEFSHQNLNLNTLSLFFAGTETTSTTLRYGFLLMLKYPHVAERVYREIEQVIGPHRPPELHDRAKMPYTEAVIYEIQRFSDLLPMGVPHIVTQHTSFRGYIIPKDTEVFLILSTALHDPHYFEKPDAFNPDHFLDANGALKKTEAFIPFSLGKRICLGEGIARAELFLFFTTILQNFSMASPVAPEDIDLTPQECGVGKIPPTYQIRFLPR
hERG (KCNH2), sequence (Q12809 whole entry): as the sequence (Q12809 whole entry) above

For orientation: inhibition means the percentage by which the read-out fell short of the control. As usually defined, the IC50 is the concentration at which inhibition is half-maximal. What is called bioavailability is dose-corrected exposure relative to a reference, in per cent. By fraction unbound is commonly meant free concentration divided by total concentration. Regarding `Cc1nc(-c2nnn(C)c2COC(=O)N(C)CC2CCC2)ccc1O[C@H]1CCC[C@H](C(=O)O)C1`, the Activity result in series [1], in series [15] and in series [16] was “Non-Toxic” each time. This compound also displayed an inhibition at 10 µM on hERG [2] of 6%. The values for the Vd in series [3] and in series [7] were 6.3 L/kg and 9 L/kg, respectively. The IC50 at CYP2B6 is above 50 µM. Besides, the Drug metabolism entry in [4] is “Metabolite_Notdetected”; in [10] it was “Metabolite_Detected”. Moreover, the bioavailability is 91% in series [5] and 69% in [14]. The values for the clearance in series [6] and in series [12] were 118 mL/min/kg and 104 mL/min/kg, respectively. Moreover, the half-life in series [8] was 2 h; in series [11], 1.5 h; in [13], above 0.917 h. In [9], the fraction unbound at 24 h is 0.009.
In general, solubility refers to the concentration that dissolves in the medium under given conditions. In general, Kb refers to the equilibrium dissociation constant of an antagonist, usually derived from a functional assay. As usually defined, the AUC is the area under the concentration-time curve, a measure of exposure. As to `CCCN(C)C(=O)OCc1c(-c2ccc(O[C@H]3CCC[C@H](C(=O)O)C3)c(C)n2)nnn1C` [ADMILPARANT], the Activity result in series [17] is given as “Non-Toxic”; in [26], “Non-Toxic”; in [27], “Non-Toxic”; in the series on Rattus norvegicus [29], 56%; in series [32], “Non-Toxic”; in the series with Rattus norvegicus [33], 41%. Besides, the Activity in the series on Rattus norvegicus [36] is listed as 48%; in [37] it was “Non-Toxic”. In addition, the Vd was 1.6 L/kg in series [3] and 3.5 L/kg in series [7]. Moreover, the IC50 in the series “animal or person [18]” is 48 µM; in series [25] it was above 100 µM; in “animal or person [28]”, 174 µM. In series [19], this compound registered a solubility of 6210 µg/mL (≈ 13.9 mM). The Drug metabolism result in series [20], in [22], in series [23], in series [4], in [31] and in series [34] was “Metabolite_Detected” in each case. The antagonist equilibrium constant (Kb) in [21] turned out to be 0.004 µM. The bioavailability was 70% in series [5] and 100% in series [14]. In addition, the AUC at 24 h in series [24] and in series [35] was 1140 µg·h/mL in each case. Moreover, the values for the clearance in series [6] and in [12] were 37 mL/min/kg and 15 mL/min/kg, respectively. In addition, the half-life in series [8] is 4.5 h; in [11], 2.5 h. In addition, the unbound share (fraction unbound) at 24 h in series [9] is 0.008. Also, the inhibition at 30 µM at hERG [30] came out at 35%.
As for `Cc1noc(-c2ccc(-c3ccc(C4(C(=O)O)CC4)cc3)cc2)c1NC(=O)O[C@H](C)c1ccccc1` [BMS-986020], at hERG (KCNH2), the inhibition at 15 µM was determined as 7%. Besides, the IC50 was above 50 µM on CYP2B6 and 7.5 µM in series [25]. Besides, the Kb in series [21] came to 0.0037 µM. Besides, the exposure (AUC) at 168 h in series [38] was 74 µg·h/mL. Besides, the Activity in the series on Rattus norvegicus [39] came out at 63%.
